Columns and labels:
[1] = target: Cathepsin S (Homo sapiens, UniProt P25774); assay: Cathepsin S inhibition assay (fluorogenic peptide substrate); type: biochemical; conditions: Table II, compounds of Formula I; read-out: Ki Cat. S
Procedure, shortened: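 Ki values come from nonlinear fitting of inhibited hydrolysis rates, taking free and total inhibitor concentrations as equal. Rates measured as rising fluorescence at 380/450 nm after reaction start with 50 μM final acetyl-HPVK-aminocarbamoylcoumarin.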

[2] = target: T1, Cathepsin K (Homo sapiens, UniProt P43235); assay: Cathepsin K inhibition assay (fluorogenic peptide substrate); selectivity ratio vs cathepsin S; type: biochemical; conditions: ratio of cathepsin K inhibition constant to cathepsin S inhibition constant; Table II
T1 sequence (P43235 115-329): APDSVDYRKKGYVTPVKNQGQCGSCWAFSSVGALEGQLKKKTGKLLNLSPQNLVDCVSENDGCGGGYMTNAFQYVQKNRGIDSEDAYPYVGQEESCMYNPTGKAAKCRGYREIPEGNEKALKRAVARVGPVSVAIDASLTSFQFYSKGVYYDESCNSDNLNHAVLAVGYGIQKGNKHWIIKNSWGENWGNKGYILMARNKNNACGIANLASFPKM
Procedure, shortened: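 Inhibition constants for competitive inhibitors come from apparent values fitted to enzyme progress curves. Substrate, acetyl-Lys-His-Pro-Lys-aminocarbamoylcoumarin (40 μM final), starts the reaction; fluorescence rise read at 380 nm excitation, 450 nm emission. Selectivity ratio: other cathepsin constant over cathepsin S constant.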

Cathepsin S, sequence (P25774 115-331, species assumed): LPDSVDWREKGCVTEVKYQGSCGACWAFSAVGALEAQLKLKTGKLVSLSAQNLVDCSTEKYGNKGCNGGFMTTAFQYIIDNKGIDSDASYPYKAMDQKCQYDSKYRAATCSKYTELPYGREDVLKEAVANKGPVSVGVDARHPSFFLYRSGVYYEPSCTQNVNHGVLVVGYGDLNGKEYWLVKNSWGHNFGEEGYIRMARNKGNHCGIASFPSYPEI

SMILES	Ki [1] [nM]	Selectivity for Cat. S over Cat. K [2]
COc1ccc(NCCNC(=O)[C@H](CC2CCCCC2)NC(=O)c2sc(-c3ccc(C(F)(F)F)cc3)nc2C)cc1 [Compound 188, (S)-4-Methyl-2-(4-trifluoromethyl-phenyl)-thiazole-5-carboxylic acid {2-cyclohexyl-1-[2-(4-methoxy-phenylamino)-ethylcarbamoyl]-ethyl}-amide]	< 100	+++ (+++, >1000)
O=C(N[C@@H](CC1CCCCC1)C(=O)NCCNc1ccc(OC(F)(F)F)cc1)C1CN(Cc2ccccc2)CCO1 (stereo partly drawn) [Compound 32, 4-Benzyl-morpholine-2-carboxylic acid (S)-{2-cyclohexyl-1-[2-(4-trifluoromethoxy-phenylamino)-ethylcarbamoyl]-ethyl}-amide]	< 100	+ (+, >10)
COc1ccc(NCCNC(=O)[C@H](Cc2ccccc2)NC(=O)NCc2cccc(F)c2)cc1 [Compound 96, (S)-2-[3-(3-Fluoro-benzyl)-ureido]-N-[2-(4-methoxy-phenylamino)-ethyl]-3-phenyl-propionamide]	< 10000	+ (+, >10)
O=C(Cc1nnn[nH]1)N[C@@H](CC1CCCCC1)C(=O)NCCNc1ccc(F)cc1 [Compound 297, 3-Cyclohexyl-N-[2-(4-fluoro-phenylamino)-ethyl]-2-(S)-(2-1H-tetrazol-5-yl-acetylamino)-propionamide]	< 1000	++ (++, >100)
COc1ccc(NCCNC(=O)C(NC(=O)c2cccc(C)c2)c2ccc(Cl)cc2Cl)cc1 (stereo not shown) [Compound 222, N-{(2,4-Dichloro-phenyl)-[2-(4-methoxy-phenylamino)-ethylcarbamoyl]-methyl}-3-methyl-benzamide]	< 100	+++ (+++, >1000)

Source: patent US7109243B2 (IRM LLC, priority 2003, dated 2006)
